No end group written: not given here. *: point of attachment. MMAE = monomethyl auristatin E, CC[C@H](C)[C@@H]([C@@H](CC(=O)N1CCC[C@H]1[C@H](OC)[C@@H](C)C(=O)N[C@H](C)[C@@H](O)c1ccccc1)OC)N(C)C(=O)[C@@H](NC(=O)[C@H](C(C)C)N(C)*)C(C)C; p‑aminobenzylcarbamate = NC(=O)OCc1ccc(N*)cc1
How the values were obtained:
[1] = test system: HCT116 xenograft tumor; experiment: In vivo efficacy in HCT116 xenograft tumor model; design: species or system balb-c/nu mice; conditions: for tumor growth suppression (KGDEVD-MMAE ADCs): same tumor model, FIG. 7
Description: To assess the anti-tumor efficacy of anti-doppel ADCs, an HCT116 xenograft tumor model was used. HCT116 cells (1×10^^7 cells/mouse) were inoculated into the left flank of balb-c/nu mice. When the average tumor volume reach 70-100 mm^3, ADC was administered intravenously every 4 days for a total of 4 times. Tumor volume was measured every 4 days until the end of the experiments.

[2] = molecular target: doppel (human, UniProt Q9UKY0 26-152); experiment: cell-based or functional assay
Sequence of doppel (Q9UKY0 26-152): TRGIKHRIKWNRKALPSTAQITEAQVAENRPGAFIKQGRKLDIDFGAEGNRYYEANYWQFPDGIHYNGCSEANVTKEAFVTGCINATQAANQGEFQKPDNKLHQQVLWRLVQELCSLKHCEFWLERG

Molecule | tumor growth suppression (KGDEVD-MMAE ADCs) [1] | IC50 (nM), cytotoxicity on HCT116 cells, viability after 72 hours [2] | also measured
3H9-DEVD-MMAE: ADC prepared as 3H9-KGDEVD-MMAE except using maleimide-DEVD-MMAE (DEVD-{p‑aminobenzylcarbamate-MMAE}; not fully specified (N-terminus); also: conjugated to mAb 3H9 through maleimide) | – | – | tumor growth suppression, ADCs with different linkers ([1]; HCT116 xenograft, FIG. 6): effectively suppressed tumor growth
3D5-KGDEVD-MMAE: ADC prepared as 3H9-KGDEVD-MMAE using anti-doppel mAb 3D5 (maleimide-KGDEVD-{p‑aminobenzylcarbamate-MMAE}; also: conjugated to mAb 3D5 through maleimide) | effectively suppressed tumor growth | – | –
4D1-KGDEVD-MMAE: ADC prepared as 3H9-KGDEVD-MMAE using anti-doppel mAb 4D1 (maleimide-KGDEVD-{p‑aminobenzylcarbamate-MMAE}; also: conjugated to mAb 4D1 through maleimide) | effectively suppressed tumor growth | – | –
3H9-KGDEVD-MMAE (name=SEQ ID NO:65; structure=SEQ ID NO:66) (antibody, human IgG1, kappa, V domains shown, maleimide-KGDEVD-MMAE (SEQ ID NO:77) linker-payload on reduced Cys residues of the partially reduced mAb; positions and chain not stated) VH: EVQLVESGGGLVQPGGSLRLSCAASGFTFSSYAMSWVRQAPGKGLEWVSGISGSGSRTDYADSVKGRFTISRDNSKNTLYLQMNSLRAEDTAVYYCAKVYTYTRGFAFDLWGQGTLVTVSS VL: DIQMTQSPSSLSASVGDRVTITCRASQSISNYLNWYQQKPGKAPKLLIYAASTLQSGVPSRFSGSGSGTDFTLTISSLQPEDFATYYCQQSYSFPYTFGQGTKVEIKR | – | 39.3 nM | –
3H9-vc-MMAE (antibody, human IgG1, kappa, V domains shown, mc-Val-Cit-PABA-MMAE linker-payload on reduced Cys residues of the partially reduced mAb; positions and chain not stated) VH: EVQLVESGGGLVQPGGSLRLSCAASGFTFSSYAMSWVRQAPGKGLEWVSGISGSGSRTDYADSVKGRFTISRDNSKNTLYLQMNSLRAEDTAVYYCAKVYTYTRGFAFDLWGQGTLVTVSS VL: DIQMTQSPSSLSASVGDRVTITCRASQSISNYLNWYQQKPGKAPKLLIYAASTLQSGVPSRFSGSGSGTDFTLTISSLQPEDFATYYCQQSYSFPYTFGQGTKVEIKR | – | 28.6 nM | –
